Test results: the NIST ThermoML archive (doi:10.1021/je700281z)
Several values for one entry are separate records, joined by “and”; a condition that tells them apart may be missing. Equal values may be shown once.

Tests used:
[1] = xn = mol fraction of the nth substance listed; details: 101 kPa, Liquid
[2] = 101.33 kPa, Liquid; for speed of sound: sound analyzer

CCCCOCCOCCO [3,6-dioxa-1-decanol] + CCCCO
[1]
Details	mass density [kg/m3]
293.15 K, x1 = 0.1013	834.791
293.15 K, x1 = 0.1505	845.543
293.15 K, x1 = 0.2017	855.876
293.15 K, x1 = 0.2529	865.45
293.15 K, x1 = 0.3005	873.704
293.15 K, x1 = 0.3516	881.978
293.15 K, x1 = 0.4507	896.487
293.15 K, x1 = 0.5005	903.11
293.15 K, x1 = 0.5506	909.377
293.15 K, x1 = 0.6036	915.608
293.15 K, x1 = 0.6493	920.67
293.15 K, x1 = 0.7	925.984
293.15 K, x1 = 0.7292	928.912
293.15 K, x1 = 0.749	930.843
293.15 K, x1 = 0.8483	939.967
298.15 K, x1 = 0.0521	819.296
298.15 K, x1 = 0.15	841.555
298.15 K, x1 = 0.2022	852.057
298.15 K, x1 = 0.2535	861.607
298.15 K, x1 = 0.301	869.838
298.15 K, x1 = 0.3487	877.538
298.15 K, x1 = 0.4028	885.726
298.15 K, x1 = 0.4536	892.882
298.15 K, x1 = 0.6017	911.346
298.15 K, x1 = 0.6501	916.714
298.15 K, x1 = 0.7003	921.969
298.15 K, x1 = 0.7486	926.743
298.15 K, x1 = 0.7986	931.465
298.15 K, x1 = 0.8491	935.973
303.15 K, x1 = 0.0462	813.931
303.15 K, x1 = 0.0516	815.259
303.15 K, x1 = 0.1015	827.004
303.15 K, x1 = 0.1522	837.999
303.15 K, x1 = 0.2002	847.641
303.15 K, x1 = 0.2536	857.548
303.15 K, x1 = 0.3008	865.688
303.15 K, x1 = 0.3513	873.826
303.15 K, x1 = 0.3997	881.12
303.15 K, x1 = 0.4513	888.394
303.15 K, x1 = 0.5047	895.427
303.15 K, x1 = 0.552	901.283
303.15 K, x1 = 0.6546	912.925
303.15 K, x1 = 0.6992	917.561
303.15 K, x1 = 0.7074	918.41
303.15 K, x1 = 0.7476	922.362
303.15 K, x1 = 0.7976	927.051
303.15 K, x1 = 0.7988	927.176
303.15 K, x1 = 0.8959	935.611

CCOCCOCCO [3,6-dioxa-1-octanol]
[2]
Details	mass density [kg/m3]	speed of sound [m/s]
293.15 K	987.876	1392.3
298.15 K	983.336	1374.3
303.15 K	978.788	1356.6

CCOCCOCCO [3,6-dioxa-1-octanol] + CCCCO
[1]
Details	mass density
293.15 K, x1 = 0.0519	823.011 kg/m3
293.15 K, x1 = 0.1029	835.52 kg/m3
293.15 K, x1 = 0.1999	857.73 kg/m3
293.15 K, x1 = 0.2989	878.535 kg/m3
293.15 K, x1 = 0.3513	888.856 kg/m3
293.15 K, x1 = 0.4015	898.337 kg/m3
293.15 K, x1 = 0.4514	907.402 kg/m3
293.15 K, x1 = 0.5492	924.169 kg/m3
293.15 K, x1 = 0.5966	931.866 kg/m3
293.15 K, x1 = 0.65	940.215 kg/m3
293.15 K, x1 = 0.7002	947.765 kg/m3
293.15 K, x1 = 0.7009	947.885 kg/m3
293.15 K, x1 = 0.7015	947.962 kg/m3
293.15 K, x1 = 0.7952	961.375 kg/m3
293.15 K, x1 = 0.8477	968.507 kg/m3
293.15 K, x1 = 0.8489	968.677 kg/m3
293.15 K, x1 = 0.8966	974.953 kg/m3
293.15 K, x1 = 0.95	981.736 kg/m3
298.15 K, x1 = 0.0512	818.966 kg/m3
298.15 K, x1 = 0.1017	831.315 kg/m3
298.15 K, x1 = 0.1026	831.513 kg/m3
298.15 K, x1 = 0.151	842.801 kg/m3
298.15 K, x1 = 0.1733	847.84 kg/m3
298.15 K, x1 = 0.2524	864.926 kg/m3
298.15 K, x1 = 0.35	884.465 kg/m3
298.15 K, x1 = 0.4025	894.359 kg/m3
298.15 K, x1 = 0.449	902.763 kg/m3
298.15 K, x1 = 0.452	903.287 kg/m3
298.15 K, x1 = 0.4995	911.551 kg/m3
298.15 K, x1 = 0.5992	927.958 kg/m3
298.15 K, x1 = 0.6015	928.324 kg/m3
298.15 K, x1 = 0.6487	935.658 kg/m3
298.15 K, x1 = 0.7001	943.37 kg/m3
298.15 K, x1 = 0.7491	950.466 kg/m3 and 950.476 kg/m3
298.15 K, x1 = 0.8	957.603 kg/m3
298.15 K, x1 = 0.8086	958.782 kg/m3
298.15 K, x1 = 0.8491	964.231 kg/m3
298.15 K, x1 = 0.8982	970.663 kg/m3
303.15 K, x1 = 0.0507	814.94 kg/m3
303.15 K, x1 = 0.1007	827.098 kg/m3
303.15 K, x1 = 0.1488	838.296 kg/m3
303.15 K, x1 = 0.1539	839.456 kg/m3
303.15 K, x1 = 0.1998	849.635 kg/m3
303.15 K, x1 = 0.2025	850.231 kg/m3
303.15 K, x1 = 0.2526	860.864 kg/m3
303.15 K, x1 = 0.3035	871.188 kg/m3
303.15 K, x1 = 0.3042	871.343 kg/m3
303.15 K, x1 = 0.3492	880.114 kg/m3
303.15 K, x1 = 0.4027	890.141 kg/m3
303.15 K, x1 = 0.4543	899.435 kg/m3
303.15 K, x1 = 0.5504	915.759 kg/m3
303.15 K, x1 = 0.5525	916.103 kg/m3
303.15 K, x1 = 0.5539	916.33 kg/m3
303.15 K, x1 = 0.6	923.723 kg/m3
303.15 K, x1 = 0.6019	924.03 kg/m3
303.15 K, x1 = 0.7506	946.255 kg/m3
303.15 K, x1 = 0.8006	953.229 kg/m3
303.15 K, x1 = 0.8496	959.837 kg/m3
303.15 K, x1 = 0.949	972.571 kg/m3

CCCCO [butan-1-ol]
[2]
Details	mass density [kg/m3]	speed of sound [m/s]
293.15 K	809.644	1256.7
298.15 K	805.842	1239.2
303.15 K	801.995	1222.7
